{"source": "patent US20070219236A1", "about": "“Dialkoxy-Imidazopyridines Derivatives” (Atlanta Pharma AG, priority 2004, published 2007)"}
{"tested_on": "pentagastrin-stimulated acid secretion of the perfused rat stomach", "experiment": "Secretion-inhibiting action on the perfused rat stomach (pentagastrin-stimulated acid secretion)", "assay_type": "in vivo", "conditions": "anesthetized CD rat, female; dose 2 μmol/kg i.d. (intraduodenal); pentagastrin 1 μg/kg i.v. continuous infusion", "from_the_text": "Testing of the Secretion-Inhibiting Action on the Perfused Rat Stomach\nIn Table A which follows, the influence of the compounds according to the invention on the pentagastrin-stimulated acid secretion of the perfused rat stomach after intraduodenal administration in vivo is shown.\nThe abdomen of anesthetized rats (CD rat, female, 200-250 g; 1.5 g/kg i.m. urethane) was opened after tracheotomy by a median upper abdominal incision and a PVC catheter was fixed transorally in the esophagus and another via the pylorus such that the ends of the tubes just projected into the gastric lumen. The catheter leading from the pylorus led outward into the right abdominal wall through a side opening.\nAfter thorough rinsing (about 50-100 ml), warm (37° C.) physiological NaCl solution was continuously passed through the stomach (0.5 ml/min, pH 6.8-6.9; Braun-Unita I). The pH (pH meter 632, glass electrode EA 147; Φ=5 mm, Metrohm) and, by titration with a freshly prepared 0.01N NaOH solution to pH 7 (Dosimat 665 Metrohm), the secreted HCl were determined in the effluent in each case collected at an interval of 15 minutes.\nThe gastric secretion was stimulated by continuous infusion of 1 μg/kg (=1.65 ml/h) of i.v. pentagastrin (left femoral vein) about 30 min after the end of the operation (i.e. after determination of 2 preliminary fractions). The substances to be tested were administered intraduodenally in a 2.5 ml/kg liquid volume 60 min after the start of the continuous pentagastrin infusion.\nThe body temperature of the animals was kept at a constant 37.8-38° C. by infrared irradiation and heat pads (automatic, stepless control by means of a rectal temperature sensor).", "units": {"Inhibition of acid secretion (%)": "%"}}
{"smiles": "COc1ccc2nc([S+]([O-])Cc3nccc(OC)c3OC)[nH]c2n1", "note": "(stereo not drawn) [Example 1, 2-(3,4-Dimethoxy-pyridine-2-ylmethanesulfinyl)-5-methoxy-3H-imidazo[4,5-b]pyridine]", "Inhibition of acid secretion (%)": ">50"}
{"smiles": "COc1ccc2nc([S@@+]([O-])Cc3nccc(OC)c3OC)[nH]c2n1", "note": "[Example 2, (S)-2-(3,4-Dimethoxy-pyridine-2-ylmethanesulfinyl)-5-methoxy-3H-imidazo[4,5-b]pyridine]", "Inhibition of acid secretion (%)": ">50"}
{"smiles": "COc1ccc2nc([S@+]([O-])Cc3nccc(OC)c3OC)[nH]c2n1", "note": "[Example 3, (R)-2-(3,4-Dimethoxy-pyridine-2-ylmethanesulfinyl)-5-methoxy-3H-imidazo[4,5-b]pyridine]", "Inhibition of acid secretion (%)": ">50"}
